Series [1] in a line: Half-life in nude mouse at 4 mg/kg, po measured for 24 hrs by LC-MS/MS analysis. The format is ADME, organism-based. As to conditions: in vivo.
A short description of series [2]: Unbound fraction in Sprague-Dawley rat brain by LC-MS/MS analysis. The class given is ADME, tissue-based.
Series [3] can be described thus: Acute toxicity in rat assessed as effect on blood chemistry parameters up to 300 mg/kg measured for 7 days. As to conditions: in vivo, 168 h. The format is organism-based.
Series [4] relates to Rattus norvegicus. The experiment in a line: Anti-premature ejaculation activity in anesthetized oxytocin-induced uterine contraction Sprague-Dawley rat model assessed as decrease in intraluminal uterine pressure at 30 mg/kg, po treated for 20 mins and 1 hr later treated with oxytocin and measured for 15 to 30 mins relative to control. The format is functional.
Series [5] can be described thus: AUC (0 to 24 hrs) in anesthetized oxytocin-induced uterine contraction Sprague-Dawley rat model at 30 mg/kg, po. The class given is ADME, organism-based. On the set-up: dose 30 mg/kg, time < 24 hr, route oral. As to conditions: in vivo.
The subject of series [6] is Rattus norvegicus. The experiment in a line: Anti-premature ejaculation activity in anesthetized oxytocin-induced uterine contraction Sprague-Dawley rat model assessed as decrease in intraluminal uterine pressure at 100 mg/kg, po treated for 20 mins and 1 hr later treated with oxytocin and measured for 15 to 30 mins relative to control. The format is functional.
The nature of series [7]: Cmax in Sprague-Dawley rat at 30 mg/kg, po measured for 24 hrs by LC-MS/MS analysis. The format is ADME, organism-based. On the set-up: dose 30 mg/kg, route oral. As to conditions: in vivo.
The nature of series [8]: AUC (0 to 24 hrs) in Sprague-Dawley rat at 30 mg/kg, po by LC-MS/MS analysis. The format is ADME, organism-based. As to conditions: in vivo. On the set-up: dose 30 mg/kg, time < 24 hr, route oral.
Series [9] in a line: Unbound brain-to-plasma concentration ratio in Sprague-Dawley rat by LC-MS/MS analysis. The format is ADME, cell-free. As to conditions: read-out: K(p,uu,brain).
The target of series [10] is Voltage-gated inwardly rectifying potassium channel KCNH2 (Homo sapiens, UniProt Q12809). The series is described as follows: Inhibition of human ERG.
Chain of Voltage-gated inwardly rectifying potassium channel KCNH2 (Q12809 whole entry): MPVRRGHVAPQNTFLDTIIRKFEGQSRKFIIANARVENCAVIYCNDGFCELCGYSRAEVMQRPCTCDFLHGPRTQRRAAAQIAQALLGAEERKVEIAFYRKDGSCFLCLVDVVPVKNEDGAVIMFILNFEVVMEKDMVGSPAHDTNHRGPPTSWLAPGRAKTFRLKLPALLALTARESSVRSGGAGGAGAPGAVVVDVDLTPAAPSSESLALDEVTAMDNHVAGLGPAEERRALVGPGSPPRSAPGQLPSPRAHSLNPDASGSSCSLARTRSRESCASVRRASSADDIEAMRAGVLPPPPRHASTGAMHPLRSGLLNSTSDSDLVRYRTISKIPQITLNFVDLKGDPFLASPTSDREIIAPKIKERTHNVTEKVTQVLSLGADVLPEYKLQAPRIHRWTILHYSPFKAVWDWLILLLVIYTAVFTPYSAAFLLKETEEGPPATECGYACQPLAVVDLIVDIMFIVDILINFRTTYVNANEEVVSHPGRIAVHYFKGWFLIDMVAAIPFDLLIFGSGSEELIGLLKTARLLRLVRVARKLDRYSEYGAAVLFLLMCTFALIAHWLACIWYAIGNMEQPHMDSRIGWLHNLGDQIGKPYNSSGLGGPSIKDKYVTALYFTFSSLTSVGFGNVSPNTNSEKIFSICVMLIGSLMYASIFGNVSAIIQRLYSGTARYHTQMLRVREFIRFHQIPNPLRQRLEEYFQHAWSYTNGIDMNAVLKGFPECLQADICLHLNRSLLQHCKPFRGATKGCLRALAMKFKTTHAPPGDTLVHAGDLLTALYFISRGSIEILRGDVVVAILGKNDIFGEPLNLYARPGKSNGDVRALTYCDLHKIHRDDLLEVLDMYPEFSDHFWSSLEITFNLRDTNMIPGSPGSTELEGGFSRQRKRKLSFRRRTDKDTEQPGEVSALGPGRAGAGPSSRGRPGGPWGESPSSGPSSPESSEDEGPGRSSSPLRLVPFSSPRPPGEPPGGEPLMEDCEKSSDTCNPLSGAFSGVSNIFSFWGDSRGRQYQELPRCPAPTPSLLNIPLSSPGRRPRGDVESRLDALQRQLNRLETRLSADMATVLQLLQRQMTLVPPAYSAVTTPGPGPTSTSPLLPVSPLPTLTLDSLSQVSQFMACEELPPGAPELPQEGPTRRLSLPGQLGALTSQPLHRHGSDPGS
The species named for a further series is Homo sapiens. The experiment in a line: Selectivity ratio of IC50 for human vasopressin V1A receptor expressed in HEK293 cells to IC50 for human OTR expressed in HEK293 cells. The class given is cell-based.
The nature of series [11]: Acute toxicity in rat assessed as effect on clinical parameters up to 300 mg/kg measured for 7 days. The class given is organism-based. As to conditions: in vivo, 168 h.
A short description of series [12]: Tmax in Sprague-Dawley rat at 150 mg/kg, po measured for 24 hrs by LC-MS/MS analysis. The class given is ADME, organism-based. As to conditions: in vivo.
The nature of series [13]: Half-life in Sprague-Dawley rat at 30 mg/kg, po measured for 24 hrs by LC-MS/MS analysis. The class given is ADME, organism-based. As to conditions: in vivo.
The target of the next series is T1, Cytochrome P450 1A2 (Homo sapiens, UniProt P05177).
T1 sequence (P05177 whole entry): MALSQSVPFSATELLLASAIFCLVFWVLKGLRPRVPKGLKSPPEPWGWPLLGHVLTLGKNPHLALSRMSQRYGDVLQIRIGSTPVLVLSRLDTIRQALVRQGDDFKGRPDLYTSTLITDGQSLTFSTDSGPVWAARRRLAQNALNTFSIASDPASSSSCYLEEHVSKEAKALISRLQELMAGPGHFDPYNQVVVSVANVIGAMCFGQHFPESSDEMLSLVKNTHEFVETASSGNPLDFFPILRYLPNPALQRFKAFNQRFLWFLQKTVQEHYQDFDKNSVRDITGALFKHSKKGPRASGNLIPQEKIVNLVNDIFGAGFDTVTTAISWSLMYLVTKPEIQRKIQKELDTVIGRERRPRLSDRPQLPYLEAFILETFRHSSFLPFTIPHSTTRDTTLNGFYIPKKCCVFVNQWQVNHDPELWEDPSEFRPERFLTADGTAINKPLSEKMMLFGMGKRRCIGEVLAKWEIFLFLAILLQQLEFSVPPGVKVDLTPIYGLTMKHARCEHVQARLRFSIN
The series is described as follows: Inhibition of human recombinant CYP1A2. The class given is ADME.

Another series addresses Cytochrome P450 2C9 (Homo sapiens, UniProt P11712). The experiment in a line: Inhibition of human recombinant CYP2C9. The class given is ADME.

Chain of Cytochrome P450 2C9 (P11712 whole entry): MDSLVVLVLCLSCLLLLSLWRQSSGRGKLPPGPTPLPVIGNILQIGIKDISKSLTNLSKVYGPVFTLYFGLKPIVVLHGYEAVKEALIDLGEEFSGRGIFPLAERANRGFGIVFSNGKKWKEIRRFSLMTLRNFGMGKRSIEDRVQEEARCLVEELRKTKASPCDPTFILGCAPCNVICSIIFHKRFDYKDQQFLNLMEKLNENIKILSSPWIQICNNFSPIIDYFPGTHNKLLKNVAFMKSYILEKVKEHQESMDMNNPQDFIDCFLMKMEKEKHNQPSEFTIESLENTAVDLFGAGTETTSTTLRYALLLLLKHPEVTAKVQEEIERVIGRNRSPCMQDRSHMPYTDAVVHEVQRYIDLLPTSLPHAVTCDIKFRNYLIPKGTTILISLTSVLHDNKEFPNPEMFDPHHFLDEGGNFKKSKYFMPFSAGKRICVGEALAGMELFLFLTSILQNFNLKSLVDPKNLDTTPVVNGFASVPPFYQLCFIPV

As for `COCc1nnc(N2C[C@@H]3C[C@]3(c3ccc(F)cc3Cl)C2)n1-c1ccc(OC)nc1`, the values for the half-life in [1] and in [13] were 1.9 h and 2.23 h, respectively. For the same compound, the fraction unbound (usually free concentration divided by total concentration) in series [2] stood at 0.0166. Moreover, the Activity result in series [3] and in [11] was “Non-Toxic” each time. For the same compound, in the series with Rattus norvegicus [4], the inhibition in vivo (in general, the relative decrease from the control value, in per cent) at 30 mg/kg is 65%. Further, the figures for the exposure AUC(0-t) at 24 h in [5] and in series [8] were 28300 ng·h/mL and 16100 ng·h/mL, respectively. In addition, in the series with Rattus norvegicus [6], the inhibition in vivo at 100 mg/kg came to 77.5%. For the same compound, the Cmax (in general, the maximum level reached in the sampled fluid or tissue) in series [7] is 3300 ng/mL. Moreover, the Kp uu in series [9] was determined as 0.188. Further, the IC50 (usually the concentration that gives 50% inhibition) in series [10] was 16 µM; at Cytochrome P450 1A2 it was more than 30 µM; on Cytochrome P450 2C9 it was more than 30 µM. For the same compound, the Ratio IC50 in the series listed under Homo sapiens was found to be 192. In addition, the time of peak concentration (Tmax) (usually the time from dosing to the highest level) in series [12] stood at 0.67 h.

Source of the values: ChEMBL document CHEMBL4364273, “Discovery of SHR1653, a Highly Potent and Selective OTR Antagonist with Improved Blood-Brain Barrier Penetration” (ACS Med Chem Lett, 2019).
